# Laboratory results from BindingDB's records for doi:10.1021/jm00110a017 (Institutions, 1991).
# Test: Displacement of [3H]DTG from sigma opioid receptor of homogenized guinea pig whole brain
row,IC50 [nM],Structure (SMILES)
1,10,COc1ccc(NC(N)=NC23CC4CC(CC(C4)C2)C3)cc1
2,7,COc1ccc(N=C(N)NC23CC4CC(CC(C4)C2)C3)c(C)c1
3,7,COc1cccc(NC(N)=NC23CC4CC(CC(C4)C2)C3)c1
4,17,COc1ccccc1N=C(N)NC12CC3CC(CC(C3)C1)C2
5,3.2,Cc1cc(F)ccc1N=C(N)NC12CC3CC(CC(C3)C1)C2
6,8,NC(=NC12CC3CC(CC(C3)C1)C2)Nc1cccc(I)c1
7,6.2,NC(=Nc1ccccc1I)NC12CC3CC(CC(C3)C1)C2
